Non-standard residues stand in square brackets, D forms with d. Residues, ends and D or L forms follow the SMILES beside them. dNMeF = CN[C@H](Cc1ccccc1)C(=O)O
Legend:
[1] = target: Integrin alpha-V/beta-6 (Homo sapiens, UniProt P06756+P18564); test: Inhibition of LAP binding to human integrin alphavbeta6 receptor after 1 hr by solid-phase binding assay; assay type: protein-complex assay
[2] = organism: Homo sapiens; test: Selectivity ratio of IC50 for human integrin alphavbeta6 receptor to IC50 for human integrin alphavbeta8 receptor
[3] = target: Integrin alpha-V/beta-8 (Homo sapiens, UniProt P06756+P26012); test: Inhibition of LAP binding to human integrin alphavbeta8 receptor after 1 hr by solid-phase binding assay; assay type: protein-complex assay
Integrin alpha-V/beta-8, sequence (P06756 31-889 limits assumed): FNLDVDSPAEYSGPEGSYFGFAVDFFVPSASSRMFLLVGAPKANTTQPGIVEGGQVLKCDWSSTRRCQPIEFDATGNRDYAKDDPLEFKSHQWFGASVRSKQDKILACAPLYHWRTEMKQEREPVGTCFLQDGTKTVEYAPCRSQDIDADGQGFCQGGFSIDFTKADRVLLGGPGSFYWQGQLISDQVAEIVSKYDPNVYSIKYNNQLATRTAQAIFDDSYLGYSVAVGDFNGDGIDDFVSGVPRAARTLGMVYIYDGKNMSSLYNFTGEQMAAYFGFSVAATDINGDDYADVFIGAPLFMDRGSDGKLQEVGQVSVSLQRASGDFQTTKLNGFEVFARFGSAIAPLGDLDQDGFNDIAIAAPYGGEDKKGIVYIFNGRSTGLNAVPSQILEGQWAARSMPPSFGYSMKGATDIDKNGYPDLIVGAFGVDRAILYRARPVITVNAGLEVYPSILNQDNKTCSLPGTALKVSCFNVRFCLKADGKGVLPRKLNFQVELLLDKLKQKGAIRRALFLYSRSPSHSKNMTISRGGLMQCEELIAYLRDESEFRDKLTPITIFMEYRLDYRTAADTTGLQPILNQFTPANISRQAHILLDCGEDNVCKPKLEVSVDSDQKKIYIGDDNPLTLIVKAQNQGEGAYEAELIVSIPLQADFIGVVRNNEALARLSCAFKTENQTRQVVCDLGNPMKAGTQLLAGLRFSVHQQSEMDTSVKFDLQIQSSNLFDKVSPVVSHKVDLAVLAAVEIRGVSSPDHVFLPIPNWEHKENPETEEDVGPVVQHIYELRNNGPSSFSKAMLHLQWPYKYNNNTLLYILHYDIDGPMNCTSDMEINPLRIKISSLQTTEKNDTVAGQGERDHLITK
Integrin alpha-V/beta-8, sequence (P06756 891-1048 limits assumed): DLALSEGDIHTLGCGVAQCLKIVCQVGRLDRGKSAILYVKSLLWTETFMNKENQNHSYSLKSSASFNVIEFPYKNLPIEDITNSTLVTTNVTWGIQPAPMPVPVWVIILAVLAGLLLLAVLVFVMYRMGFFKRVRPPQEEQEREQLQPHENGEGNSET
Integrin alpha-V/beta-8, sequence (P26012 43-769 limits assumed): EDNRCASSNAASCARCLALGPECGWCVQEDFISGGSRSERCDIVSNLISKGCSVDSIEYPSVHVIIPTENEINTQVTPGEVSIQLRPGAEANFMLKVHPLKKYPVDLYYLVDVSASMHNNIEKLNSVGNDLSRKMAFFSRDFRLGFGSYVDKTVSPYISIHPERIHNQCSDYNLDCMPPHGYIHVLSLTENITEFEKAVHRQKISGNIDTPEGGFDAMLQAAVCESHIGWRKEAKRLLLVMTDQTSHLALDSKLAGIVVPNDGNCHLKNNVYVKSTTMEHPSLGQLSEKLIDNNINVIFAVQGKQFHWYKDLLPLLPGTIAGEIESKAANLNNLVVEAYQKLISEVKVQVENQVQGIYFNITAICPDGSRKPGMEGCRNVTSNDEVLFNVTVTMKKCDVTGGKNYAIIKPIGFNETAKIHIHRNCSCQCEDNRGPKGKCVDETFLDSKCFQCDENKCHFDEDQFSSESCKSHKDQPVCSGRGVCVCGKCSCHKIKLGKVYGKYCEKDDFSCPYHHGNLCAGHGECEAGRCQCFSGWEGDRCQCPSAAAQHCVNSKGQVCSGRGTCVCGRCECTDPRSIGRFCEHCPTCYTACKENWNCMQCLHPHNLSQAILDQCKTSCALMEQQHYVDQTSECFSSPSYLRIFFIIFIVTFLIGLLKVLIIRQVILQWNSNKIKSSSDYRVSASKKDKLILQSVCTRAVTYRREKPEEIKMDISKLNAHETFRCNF

Integrin alpha-V/beta-6, sequence (P06756 31-889 limits assumed): as the sequence (P06756 31-889 limits assumed) above
Integrin alpha-V/beta-6, sequence (P06756 891-1048 limits assumed): as the sequence (P06756 891-1048 limits assumed) above
Integrin alpha-V/beta-6, sequence (P18564 22-788 limits assumed): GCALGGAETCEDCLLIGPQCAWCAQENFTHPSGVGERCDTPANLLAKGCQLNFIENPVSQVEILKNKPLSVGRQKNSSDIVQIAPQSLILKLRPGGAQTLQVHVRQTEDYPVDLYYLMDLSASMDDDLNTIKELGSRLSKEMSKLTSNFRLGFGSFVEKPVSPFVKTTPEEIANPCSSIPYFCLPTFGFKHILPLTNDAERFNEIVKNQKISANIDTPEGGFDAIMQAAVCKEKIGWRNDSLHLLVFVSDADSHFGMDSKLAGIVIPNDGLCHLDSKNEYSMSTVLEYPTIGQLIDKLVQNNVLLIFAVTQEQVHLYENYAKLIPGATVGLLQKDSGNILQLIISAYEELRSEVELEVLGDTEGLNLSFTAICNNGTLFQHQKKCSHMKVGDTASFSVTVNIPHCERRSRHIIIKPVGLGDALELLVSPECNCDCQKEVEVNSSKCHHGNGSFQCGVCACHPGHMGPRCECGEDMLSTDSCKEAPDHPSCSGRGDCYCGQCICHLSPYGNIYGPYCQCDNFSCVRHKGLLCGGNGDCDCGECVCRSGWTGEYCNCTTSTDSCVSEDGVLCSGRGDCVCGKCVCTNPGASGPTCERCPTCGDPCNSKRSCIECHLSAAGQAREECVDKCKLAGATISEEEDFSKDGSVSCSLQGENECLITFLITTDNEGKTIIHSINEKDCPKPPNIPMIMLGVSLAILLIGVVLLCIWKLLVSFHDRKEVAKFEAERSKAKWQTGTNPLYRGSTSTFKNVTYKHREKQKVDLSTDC

For `CC(C)C[C@@H]1NC(=O)[C@H](C)NC(=O)[C@@H]2CCCN2C(=O)[C@H]2CCCN2C(=O)[C@H](CC(C)C)NC(=O)[C@H](CC(=O)O)NC(=O)CNC(=O)[C@H](CCCNC(=N)N)NC(=O)[C@H](C)NC(=O)[C@H](C)NC1=O`, the IC50 ([1]; read-out: IC50) was 430 nM, the Ratio IC50 [2] was 1.6 and the IC50 ([3]; read-out: IC50) was 270 nM.

`CC(=O)NCCCCN1C(=O)[C@H]2CCCN2C(=O)[C@H](CC(C)C)NC(=O)[C@H](CC(=O)O)NC(=O)CNC(=O)[C@H](CCCNC(=N)N)NC(=O)[C@H](CC(C)C)NC(=O)CNC(=O)[C@@H]1C` showed an IC50 ([3]; read-out: IC50) of 27 nM.

`C[C@@H]1NC(=O)[C@@H]2CCCN2C(=O)[C@H]2CCCN2C(=O)[C@H](CCCCN)NC(=O)[C@H](CC(=O)O)NC(=O)CNC(=O)[C@H](CCCNC(=N)N)NC(=O)[C@H](Cc2ccccc2)NC1=O` gave an IC50 ([1]; read-out: IC50) of 826 nM and an IC50 ([3]; read-out: IC50) of 4340 nM.

For `CC(=O)NCCCCCCNC(=N)NCCC[C@@H]1NC(=O)[C@H](CC(C)C)NC(=O)CNC(=O)[C@@H]2CCCN2C(=O)[C@H]2CCCN2C(=O)[C@H](CC(C)C)NC(=O)[C@H](CC(=O)O)NC(=O)CNC1=O`, the IC50 ([3]; read-out: IC50) was 230 nM.

`CC(C)C[C@@H]1NC(=O)[C@H](CC(=O)O)NC(=O)CNC(=O)[C@H](CCCNC(=N)N)NC(=O)[C@H](C)NC(=O)[C@H](C)NC(=O)[C@@H]2CCCN2C(=O)[C@H]2CCCN2C1=O` showed an IC50 ([1]; read-out: IC50) of 114 nM, a Ratio IC50 [2] of 14.1 and an IC50 ([3]; read-out: IC50) of 8.1 nM.

With `CC[C@H](C)[C@@H]1NC(=O)[C@H](CC(=O)O)NC(=O)CNC(=O)[C@H](CCCNC(=N)N)NC(=O)[C@H](Cc2ccccc2)NC(=O)[C@H](C)NC(=O)[C@@H]2CCCN2C(=O)[C@H]2CCCN2C1=O` the IC50 ([1]; read-out: IC50) was 707 nM, the Ratio IC50 [2] was 4.2 and the IC50 ([3]; read-out: IC50) was 169 nM.

`CC(C)C[C@@H]1NC(=O)[C@H](C)NC(=O)[C@@H]2CCCN2C(=O)[C@H]2CCCN2C(=O)[C@H](C)NC(=O)[C@H](CC(C)C)NC(=O)[C@H](CC(=O)O)NC(=O)CNC(=O)[C@H](CCCNC(=N)N)NC(=O)[C@H](C)NC1=O` showed an IC50 ([1]; read-out: IC50) of 69.9 nM and an IC50 ([3]; read-out: IC50) of 1110 nM.

With `CC(C)C[C@@H]1NC(=O)[C@H](CC(=O)O)NC(=O)CNC(=O)[C@H](CCCNC(=N)N)NC(=O)[C@H](C)NC(=O)[C@@H]2CCCN2C(=O)[C@H]2CCCN2C1=O` (cyclo(ARGDL[dP]P)) the Ratio IC50 [2] was 2.1 and the IC50 ([3]; read-out: IC50) was 197 nM.

`CC(C)C[C@@H]1NC(=O)[C@H](CC(=O)O)NC(=O)CNC(=O)[C@H](CCCNC(=N)N)NC(=O)[C@H](Cc2ccccc2)NC(=O)[C@H](C)NC(=O)[C@@H]2CCCN2C(=O)[C@H]2CCCN2C1=O` was tested, and the IC50 ([1]; read-out: IC50) was 81.3 nM, the Ratio IC50 [2] was 44.1 and the IC50 ([3]; read-out: IC50) was 1.83 nM.

`CC(C)C[C@@H]1NC(=O)[C@H](CC(=O)O)NC(=O)CNC(=O)[C@H](CCCNC(=N)N)NC(=O)[C@@H](c2ccccc2)NC(=O)[C@H](C)NC(=O)[C@@H]2CCCN2C(=O)[C@H]2CCCN2C1=O` was tested, and the IC50 ([1]; read-out: IC50) was 48.4 nM and the IC50 ([3]; read-out: IC50) was 90.3 nM.

For `CC(C)C[C@@H]1NC(=O)[C@H](C)NC(=O)[C@H](Cc2ccccc2)N(C)C(=O)[C@H]2CCCN2C(=O)[C@H](CC(C)C)NC(=O)[C@H](CC(=O)O)NC(=O)CNC(=O)[C@H](CCCNC(=N)N)NC1=O`, the IC50 ([1]; read-out: IC50) was 74 nM, the Ratio IC50 [2] was 3 and the IC50 ([3]; read-out: IC50) was 25 nM.

In the case of `CC(=O)NCCCC[C@@H]1C(=O)N2CCC[C@H]2C(=O)NCC(=O)N[C@@H](CC(C)C)C(=O)N[C@@H](CCCNC(=N)N)C(=O)NCC(=O)N[C@@H](CC(=O)O)C(=O)N[C@@H](CC(C)C)C(=O)N1C`, the IC50 ([1]; read-out: IC50) is reported as 215 nM, the Ratio IC50 [2] is reported as 3.8 and the IC50 ([3]; read-out: IC50) is reported as 57 nM.

In the case of `CC(C)C[C@H]1NC(=O)[C@H](CC(=O)O)NC(=O)CNC(=O)[C@H](CCCNC(=N)N)NC(=O)[C@H](Cc2ccccc2)NC(=O)[C@H](C)NC(=O)[C@@H]2CCCN2C(=O)[C@H]2CCCN2C1=O`, the IC50 ([1]; read-out: IC50) is reported as 559 nM and the IC50 [3] is reported as “Not Active”.

`CC(=O)NCCCCCCN1C(=O)[C@H]2CCCN2C(=O)[C@H](CC(C)C)NC(=O)[C@H](CC(=O)O)NC(=O)CNC(=O)[C@H](CCCNC(=N)N)NC(=O)[C@H](CC(C)C)NC(=O)CNC(=O)[C@@H]1C` showed an IC50 ([3]; read-out: IC50) of 20 nM.

Molecule `CC(C)C[C@@H]1NC(=O)[C@H](CO)NC(=O)[C@@H]2CCCN2C(=O)[C@H]2CCCN2C(=O)[C@H](CC(C)C)NC(=O)[C@H](CC(=O)O)NC(=O)CNC(=O)[C@H](CCCNC(=N)N)NC1=O` (cyclo(RGDL[dP]PSL)) has a Ratio IC50 [2] of 15.

For `CC(C)C[C@@H]1NC(=O)[C@H](CC(=O)O)NC(=O)CNC(=O)[C@H](CCCNC(=N)N)NC(=O)[C@H](C)NC(=O)[C@@H]2CCCN2C(=O)[C@H]2CCCN2C(=O)[C@H](CC(C)C)NC(=O)[C@H](C)NC(=O)[C@H](C)NC1=O` (cyclo(RGDLAAL[dP]PA)), the IC50 ([3]; read-out: IC50) was 88.6 nM.

`CC(C)C[C@@H]1NC(=O)[C@H](CC(=O)O)NC(=O)[C@H]([C@@H](C)O)NC(=O)[C@H](CCCNC(=N)N)NC(=O)[C@H](C)NC(=O)[C@@H]2CCCN2C(=O)[C@H]2CCCN2C(=O)[C@H](CC(C)C)NC(=O)[C@H](C)NC(=O)[C@H](C)NC1=O` showed an IC50 ([1]; read-out: IC50) of 264 nM and an IC50 ([3]; read-out: IC50) of 1290 nM.

For `CC(C)C[C@@H]1NC(=O)[C@H](CC(=O)O)NC(=O)[C@@H]([C@H](C)O)NC(=O)[C@H](CCCNC(=N)N)NC(=O)[C@H](Cc2ccccc2)NC(=O)[C@H](C)NC(=O)[C@@H]2CCCN2C(=O)[C@H]2CCCN2C1=O`, the IC50 [1] was “Not Active” and the IC50 [3] was “Not Active”.

`C[C@@H]1NC(=O)[C@@H]2CCCN2C(=O)[C@H]2CCCN2C(=O)[C@H](Cc2ccccc2)NC(=O)[C@H](CC(=O)O)NC(=O)CNC(=O)[C@H](CCCNC(=N)N)NC(=O)[C@H](Cc2ccccc2)NC1=O` showed an IC50 ([1]; read-out: IC50) of 324 nM and an IC50 ([3]; read-out: IC50) of 1150 nM.

Work on `CC(C)C[C@@H]1NC(=O)[C@H](CC(=O)O)NC(=O)CNC(=O)[C@H](CCCNC(=N)N)NC(=O)[C@H](C)NC(=O)[C@H](CC(C)C)NC(=O)[C@@H]2CCCN2C(=O)[C@H]2CCCN2C(=O)[C@H](C)NC(=O)[C@H](C)NC1=O` yielded an IC50 ([1]; read-out: IC50) of 13.4 nM and an IC50 ([3]; read-out: IC50) of 109 nM.

In the case of `CC(C)C[C@@H]1NC(=O)[C@H](C)NC(=O)[C@@H]2CCCN2C(=O)[C@@H](Cc2ccccc2)N(C)C(=O)[C@H](CC(C)C)NC(=O)[C@H](CC(=O)O)NC(=O)CNC(=O)[C@H](CCCNC(=N)N)NC1=O` (cyclo(RGDL[dNMeF]PAL)), the Ratio IC50 [2] is reported as 15.

With `CC(C)C[C@@H]1NC(=O)[C@H](C)NC(=O)[C@@H]2CCCN2C(=O)[C@H]2CCCN2C(=O)[C@H](C)NC(=O)[C@H](CC(C)C)NC(=O)[C@H](CC(=O)O)NC(=O)[C@H]([C@@H](C)O)NC(=O)[C@H](CCCNC(=N)N)NC(=O)[C@H](C)NC1=O` the IC50 ([1]; read-out: IC50) was 495 nM and the IC50 ([3]; read-out: IC50) was 8410 nM.

In the case of `CC(C)[C@@H]1NC(=O)[C@H](CC(=O)O)NC(=O)CNC(=O)[C@H](CCCNC(=N)N)NC(=O)[C@H](Cc2ccccc2)NC(=O)[C@H](C)NC(=O)[C@@H]2CCCN2C(=O)[C@H]2CCCN2C1=O`, the IC50 [1] is reported as “Not Active” and the IC50 ([3]; read-out: IC50) is reported as 467 nM.

Molecule `CC(C)C[C@@H]1NC(=O)[C@H](CC(=O)O)NC(=O)[C@H]([C@@H](C)O)NC(=O)[C@H](CCCNC(=N)N)NC(=O)[C@H](C)NC(=O)[C@H](CC(C)C)NC(=O)[C@@H]2CCCN2C(=O)[C@H]2CCCN2C(=O)[C@H](C)NC(=O)[C@H](C)NC1=O` has an IC50 ([1]; read-out: IC50) of 94.5 nM and an IC50 ([3]; read-out: IC50) of 153 nM.

Work on `CC(C)C[C@@H]1NC(=O)[C@H](C)NC(=O)[C@H](C)NC(=O)[C@H](CC(C)C)NC(=O)[C@H](CC(=O)O)NC(=O)CNC(=O)[C@H](CCCNC(=N)N)NC(=O)[C@@H]2CCCN2C(=O)[C@H]2CCCN2C(=O)[C@H](C)NC1=O` yielded an IC50 ([1]; read-out: IC50) of 14.5 nM and an IC50 ([3]; read-out: IC50) of 614 nM.

With `CC(C)C[C@@H]1NC(=O)[C@H](C)NC(=O)[C@H](C)NC(=O)[C@H](CC(C)C)NC(=O)[C@H](CC(=O)O)NC(=O)[C@H]([C@@H](C)O)NC(=O)[C@H](CCCNC(=N)N)NC(=O)[C@@H]2CCCN2C(=O)[C@H]2CCCN2C(=O)[C@H](C)NC1=O` the IC50 ([1]; read-out: IC50) was 1550 nM and the IC50 ([3]; read-out: IC50) was 3080 nM.

— ChEMBL document CHEMBL4411322 (J Med Chem, 2019)
